Laboratory results taken from the supplement of paper PMC10307832.

Assays:
Experiment in all cases: relative viability (nuclei count vs DMSO), 5 days (fraction); higher = more cells survive
[1] = compound: C=CCc1cccc(/C=N/NC(=O)CN2CCN(Cc3ccccc3)CC2)c1O [PAC-1] + CC(=O)Nc1cccc(-n2c(=O)n(C3CC3)c(=O)c3c(Nc4ccc(I)cc4F)n(C)c(=O)c(C)c32)c1 [Trametinib] (partner 0.02 µM)
Outline: (§1)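 After 5 days of treatment, lung cancer cells in 1536-well plates were fixed and stained in a single step (final 0.05% Triton X-100, 1% formaldehyde, 1 ug/ml Hoechst) and their nuclei counted on 4× images. Treatment had been applied by pin tool the day after seeding as one drug alone or as a fixed anchor-drug dose with five library-drug doses (not always all listed) in √10 steps. Relative viability is the nuclei count of treated wells divided by that of vehicle wells, and values are medians of duplicate plates.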

[2] = compound: C=CCc1cccc(/C=N/NC(=O)CN2CCN(Cc3ccccc3)CC2)c1O [PAC-1] + C[C@]1(O)C[C@@H](c2nc(-c3ccc4ccc(-c5ccccc5)nc4c3)c3c(N)nccn32)C1 [Linsitinib] (partner 1 µM)
Outline: as §1

[3] = compound: C=CCc1cccc(/C=N/NC(=O)CN2CCN(Cc3ccccc3)CC2)c1O [PAC-1] + CC1(C)CCC(c2ccc(Cl)cc2)=C(CN2CCN(c3ccc(C(=O)NS(=O)(=O)c4ccc(N[C@H](CCN5CCOCC5)CSc5ccccc5)c(S(=O)(=O)C(F)(F)F)c4)cc3)CC2)C1 [Navitoclax] (partner 0.5 µM)
Outline: as §1

[4] = compound: C=CC(=O)Nc1cc(-n2c(=O)ccc3cnc4ccc(-c5ccc(NS(C)(=O)=O)cc5)cc4c32)ccc1C [BMX-IN-1] + Cc1nc(Nc2ncc(C(=O)Nc3c(C)cccc3Cl)s2)cc(N2CCN(CCO)CC2)n1 [Dasatinib] (partner 0.075 µM)
Outline: as §1

Cell Line	relative viability ([1]; first compound 0.02 µM)	relative viability ([1]; first compound 0.06325 µM)	relative viability ([1]; first compound 0.2 µM)	relative viability ([1]; first compound 2 µM)	relative viability ([2]; first compound 0.02 µM)	relative viability ([2]; first compound 0.06325 µM)	relative viability ([2]; first compound 0.2 µM)	relative viability ([2]; first compound 2 µM)	relative viability ([3]; first compound 0.02 µM)	relative viability ([3]; first compound 0.06325 µM)	relative viability ([3]; first compound 0.2 µM)	relative viability ([3]; first compound 2 µM)	relative viability ([4]; first compound 0.02 µM)	relative viability ([4]; first compound 0.2 µM)	relative viability ([4]; first compound 0.6325 µM)	relative viability ([4]; first compound 2 µM)
NCI-H1755	0.815	0.767	0.783	0.733	1.01	1	0.94	0.982	0.959	0.954	0.986	0.989	0.389	0.452	0.438	0.48
NCI-H1792	0.475	0.402	0.392	0.468	0.648	0.602	0.534	0.579	0.613	0.563	0.621	0.681		0.817	0.714	0.862
NCI-H1793	0.363	0.423	0.39	0.405	0.728	1.01	1.21	0.96	0.453	0.46	0.535	0.461	0.417	0.432	0.479	0.451
NCI-H1915	0.304	0.303	0.303	0.33	1.09	1.09	1.02	1.07	0.449	0.794	0.751	0.767	0.351	0.338	0.411	0.302
NCI-H1944	0.414	0.393	0.433	0.444	1.17	1.05	1.12	1.06	1.03	1.04	0.954	1.04	0.203	0.188	0.222	0.206
NCI-H1975	0.391	0.424	0.325	0.349	0.917	0.908	0.921	0.894	1.12	1.2	1.12	1.06	0.362	0.382	0.457	0.38
NCI-H1993	0.446	0.534	0.623	0.583	0.735	0.797	0.745	0.701	0.85	0.814	0.837	0.95	0.659	0.703	0.479	0.634
NCI-H2009	0.295	0.35	0.255	0.234	1.16	1.21	1.17	1.15	1.16	1.18	1.22	1.16	0.303	0.294	0.278	0.271
NCI-H2023	0.723	0.542	0.47	0.402	0.642	0.615	0.512	0.876	0.981	0.963	0.953	1.02	0.767	0.637	0.667	0.682
